Common to all, as to test: growth of human tumour cells (NCI), 48 h
Experiment [1] deals with PC-3 prostate.
For experiment [2], the system named is SK-OV-3 ovarian.
The test system of experiment [3] is 786-0 renal.
Experiment [4] has as its system MDA-MB-435.
Experiment [5] has as its system CAKI-1 renal.
Experiment [6] concerns HCT-15 colon.
In experiment [7] the test system is SF-268 CNS.
The subject of experiment [8] is NCI-H460 lung.
Experiment [9] concerns SNB-19 CNS.
Experiment [10] deals with UACC-62 melanoma.
In experiment [11] the test system is NCI/ADR-RES ovarian.
Experiment [12] deals with OVCAR-4 ovarian.
In experiment [13] the test system is SK-MEL-28 melanoma.
The test system of experiment [14] is HCT-116 colon.
Experiment [15] relates to BT-549 breast.
For experiment [16], the system named is UO-31 renal.
In experiment [17] the test system is MOLT-4 leukemia.
In experiment [18] the test system is LOX IMVI melanoma.
For experiment [19], the system named is HT29 colon.
In experiment [20] the test system is HOP-92 NSCLC.

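Values below derive from 48-hour exposures of cells grown in 96-well plates, with endpoints linearly interpolated between the two concentrations bracketing the appropriate inhibition level. The concentration for full growth arrest is given as TGI.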

As to `Cc1ncc([N+](=O)[O-])n1CCNC(=O)CCn1ccnc1[N+](=O)[O-]`, the TGI in experiment [1], in experiment [2], in [3], in [4], in experiment [5] and in experiment [6] was more than 100 µM throughout. The TGI in experiment [7], in experiment [8], in experiment [9], in [10], in experiment [11] and in experiment [12] was more than 100 µM in each case. The TGI in experiment [13], in experiment [14], in experiment [15], in experiment [16], in experiment [17] and in experiment [18] was more than 100 µM throughout. Moreover, the TGI in experiment [19] was more than 100 µM.

For `CCn1c(=O)c2c3ccc(O)cc3oc2c2ccc(O)cc21`, the TGI in [1], in experiment [2], in experiment [3], in experiment [4], in [20] and in experiment [5] was more than 100 µM in each case. The TGI in experiment [6], in experiment [7], in experiment [8], in experiment [9], in [10] and in experiment [11] was more than 100 µM each time. The TGI in experiment [12] was more than 100 µM; in experiment [13], more than 100 µM; in experiment [14], 74 µM; in experiment [15] it was more than 100 µM; in experiment [16], 78.3 µM; in experiment [17] it was more than 100 µM. This compound also gave a TGI in [19] of more than 100 µM.

`CCO/C(O)=C(/C(=N)N1CCCC1)C(=O)Nc1ccc(Cl)cc1`: the TGI in experiment [1], in [2], in [3], in [4], in experiment [5] and in [6] was more than 100 µM each time. Also, the TGI in experiment [7], in experiment [8], in experiment [9], in experiment [10], in experiment [11] and in experiment [12] was more than 100 µM throughout. The TGI in experiment [13], in [14], in experiment [15], in experiment [17], in experiment [18] and in [19] was more than 100 µM throughout.

As for `Cc1ccnc2c1ccc1nc3ccccc3n12`, the TGI in experiment [1] is more than 100 µM; in experiment [3] it was more than 100 µM; in [4] it was more than 100 µM; in experiment [20], more than 100 µM; in experiment [5] it was more than 100 µM; in experiment [7], 99.6 µM. In addition, the TGI in [8], in experiment [10], in experiment [11], in [12], in experiment [14] and in experiment [15] was more than 100 µM throughout. In addition, the TGI in experiment [16], in [17], in experiment [18] and in experiment [19] was more than 100 µM throughout.

Consider `CC(C)N1CCCOC(c2ccc([N+](=O)[O-])cc2)O1` (stereo not drawn), for which the TGI in experiment [1], in [2], in [3], in [4], in experiment [20] and in experiment [5] was more than 100 µM throughout. The TGI in experiment [6], in [7], in experiment [8], in [10], in [11] and in [12] was more than 100 µM each time. The TGI in experiment [13], in experiment [14], in experiment [15], in [16], in experiment [17] and in experiment [18] was more than 100 µM each time. Further, in [19], the TGI was more than 100 µM.

For `COc1ccc(C(=O)N2CCN(c3ccc4[nH]c(=O)oc4c3)CC2)cc1`, the TGI in experiment [1], in experiment [2], in experiment [3], in experiment [4], in experiment [20] and in experiment [6] was more than 100 µM in each case. The TGI in experiment [7], in experiment [8], in experiment [9], in experiment [10], in experiment [11] and in experiment [12] was more than 100 µM each time. Further, the TGI in experiment [13], in experiment [14], in experiment [15], in [16], in [17] and in [18] was more than 100 µM in each case. Besides, the TGI in [19] was more than 100 µM.

As for `O=C(/C=C/c1cccs1)c1ccc(C(=O)/C=C/c2cccs2)cc1`, the TGI in experiment [1], in experiment [2], in experiment [3], in experiment [4], in experiment [20] and in [5] was more than 100 µM each time. In addition, the TGI in experiment [6], in experiment [7], in experiment [8], in [9], in experiment [10] and in experiment [11] was more than 100 µM throughout. Further, the TGI in experiment [12], in experiment [13], in experiment [15], in [16], in experiment [17] and in experiment [19] was more than 100 µM each time.

As for `O=C1CCSc2c(cnc3ccccc23)N1`, the TGI in [1], in [2], in experiment [3], in experiment [4], in experiment [20] and in experiment [5] was more than 100 µM in each case. Besides, the TGI in experiment [6], in experiment [7], in experiment [8], in experiment [10], in experiment [11] and in experiment [12] was more than 100 µM in each case. The TGI in experiment [13], in experiment [14], in experiment [15], in experiment [16], in experiment [17] and in experiment [18] was more than 100 µM each time. Further, in experiment [19], the TGI was more than 100 µM.

For the compound `Cc1ccnc2nc3[nH]c4ccccc4c3cc12`, the TGI is more than 100 µM in [1]; 83.7 µM in [3]; more than 100 µM in experiment [4]; more than 100 µM in experiment [20]; more than 100 µM in experiment [5]; more than 100 µM in experiment [6]. Also, the TGI in [7], in experiment [8], in experiment [10], in [11], in experiment [12] and in [14] was more than 100 µM each time. Further, the TGI in experiment [15], in [16], in experiment [17], in experiment [18] and in [19] was more than 100 µM throughout.

Take `CN1CCC/C1=C1\C(=O)c2cccn2C1=O`: the TGI in [1], in experiment [2], in [3], in experiment [4], in experiment [5] and in experiment [6] was more than 100 µM in each case. Moreover, the TGI in [7], in experiment [8], in experiment [9], in [10], in experiment [11] and in experiment [12] was more than 100 µM in each case. Also, the TGI in experiment [13], in experiment [14], in experiment [15], in experiment [16], in [17] and in experiment [18] was more than 100 µM each time. The compound further came in with a TGI in experiment [19] of more than 100 µM.

In the case of `COC(=O)c1c(C(=O)OC)c(C(c2ccccc2)c2ccccc2)n(-c2ccccc2)c1Cl`, the TGI in experiment [1], in [3], in [4], in [20], in [5] and in experiment [6] was more than 10 µM each time. For the same compound, the TGI in experiment [7], in experiment [8], in [9], in experiment [10], in [11] and in experiment [12] was more than 10 µM throughout. Moreover, the TGI was more than 10 µM in experiment [13]; more than 10 µM in experiment [14]; more than 10 µM in [15]; more than 10 µM in experiment [16]; 8.1 µM in experiment [17]; more than 10 µM in experiment [19].

Take `COC(=O)c1cc(C#N)[nH]c1-c1cccs1`: the TGI in [1], in [2], in [3], in experiment [4], in [20] and in experiment [5] was more than 100 µM in each case. In addition, the TGI in [6], in [7], in experiment [8], in experiment [9], in experiment [10] and in [11] was more than 100 µM throughout. Also, the TGI in experiment [12], in [13], in experiment [14], in experiment [15], in experiment [16] and in experiment [17] was more than 100 µM in each case.

On to `N#CC1=C(N2CCOCC2)CCC1`, for which the TGI in experiment [1], in experiment [2], in experiment [3], in [4], in [5] and in experiment [6] was more than 100 µM throughout. The TGI in [7], in experiment [9], in [10], in [11], in experiment [12] and in experiment [14] was more than 100 µM throughout. The TGI in [15], in experiment [16], in experiment [17], in experiment [18] and in experiment [19] was more than 100 µM in each case.

As for `CCCCc1ccc(N2C(=O)c3cccnc3S2(=O)=O)cc1`, the TGI in [1], in [2], in experiment [3], in [4], in experiment [20] and in experiment [5] was more than 100 µM each time. For the same compound, the TGI in experiment [6], in experiment [7], in experiment [8], in experiment [9], in experiment [10] and in experiment [11] was more than 100 µM throughout. Further, the TGI in [12], in experiment [13], in experiment [14], in experiment [15], in experiment [16] and in experiment [17] was more than 100 µM throughout. The same compound displayed a TGI in experiment [19] of more than 100 µM.

On to `O=S1(=O)OCCCOS(=O)(=O)C1Br`, for which the TGI in [1], in experiment [2], in experiment [3], in [4], in experiment [5] and in experiment [6] was more than 100 µM in each case. The TGI in [7], in experiment [9], in experiment [10], in [11], in experiment [12] and in [13] was more than 100 µM each time. Besides, the TGI in [14], in experiment [15], in [16], in experiment [17], in experiment [18] and in [19] was more than 100 µM throughout.

Values taken from PubChem BioAssay (NCI).
